Here are results for 58 compounds from ChEMBL document CHEMBL5726312, “TYK2 inhibitors and uses thereof” (2019).

One may read the Ki as a dissociation constant, usually derived from enzyme kinetics or from competition with a known ligand.

Bounds are passed on as bounds.

Chain of Non-receptor tyrosine-protein kinase TYK2 (P29597 whole entry): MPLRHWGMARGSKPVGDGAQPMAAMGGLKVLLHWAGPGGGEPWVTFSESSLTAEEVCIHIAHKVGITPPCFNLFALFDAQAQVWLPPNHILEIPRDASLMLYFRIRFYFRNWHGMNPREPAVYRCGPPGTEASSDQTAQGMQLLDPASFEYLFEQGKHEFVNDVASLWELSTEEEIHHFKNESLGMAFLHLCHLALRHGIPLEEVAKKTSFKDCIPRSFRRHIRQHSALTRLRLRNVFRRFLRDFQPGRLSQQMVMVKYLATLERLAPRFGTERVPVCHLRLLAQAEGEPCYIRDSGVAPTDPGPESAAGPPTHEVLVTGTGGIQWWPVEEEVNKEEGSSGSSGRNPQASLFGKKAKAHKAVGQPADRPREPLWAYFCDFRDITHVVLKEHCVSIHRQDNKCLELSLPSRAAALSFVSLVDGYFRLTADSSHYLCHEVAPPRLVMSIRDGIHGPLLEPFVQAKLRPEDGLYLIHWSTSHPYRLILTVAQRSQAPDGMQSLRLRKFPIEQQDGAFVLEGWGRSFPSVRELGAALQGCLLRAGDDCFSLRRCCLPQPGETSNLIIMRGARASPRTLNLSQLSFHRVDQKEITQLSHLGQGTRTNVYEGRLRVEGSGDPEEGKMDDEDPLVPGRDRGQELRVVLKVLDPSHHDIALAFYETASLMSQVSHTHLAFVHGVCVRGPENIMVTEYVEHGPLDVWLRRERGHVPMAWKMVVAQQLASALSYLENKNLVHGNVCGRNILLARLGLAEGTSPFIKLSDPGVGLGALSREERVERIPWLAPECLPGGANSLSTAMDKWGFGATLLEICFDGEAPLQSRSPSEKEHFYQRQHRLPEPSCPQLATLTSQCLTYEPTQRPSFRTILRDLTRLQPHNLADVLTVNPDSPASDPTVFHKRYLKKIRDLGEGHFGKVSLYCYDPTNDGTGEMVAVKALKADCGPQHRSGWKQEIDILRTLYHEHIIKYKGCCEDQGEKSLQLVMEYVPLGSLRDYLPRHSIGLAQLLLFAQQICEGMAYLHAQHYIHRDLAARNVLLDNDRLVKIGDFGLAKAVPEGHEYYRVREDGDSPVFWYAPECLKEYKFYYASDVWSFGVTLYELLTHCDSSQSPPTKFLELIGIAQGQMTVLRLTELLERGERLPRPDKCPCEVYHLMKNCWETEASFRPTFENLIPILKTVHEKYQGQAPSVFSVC

This experiment concerns the target Non-receptor tyrosine-protein kinase TYK2 (Homo sapiens, UniProt P29597). In words: Tyk2 & JAK2 Caliper Assay: The caliper machine employs an off chip mobility shift assay to detect phosphorylated peptide substrates from kinase assays, using microfluidics technology. The assays are carried out at ATP concentration equivalent to the ATP Km, and at 1 mM ATP. Compounds are serially diluted in DMSO then further diluted in assay buffer (25 mM HEPES, pH 7.5, 0.01% Brij-35, 0.01% Triton, 0.5 mM EGTA). 5 ul of diluted compound was added into wells first, then 10 ul of enzyme mix was added into wells, followed by 10 uL of substrate mix (peptide and ATP in 10 mM MgCl2) to start reaction. Reaction was incubated at 28° C. for 25 min and then added 25 ul stop buffer (100 mM HEPES, 0.015% Brij-35, 50 mM EDTA), followed by reading with Caliper. JAK2 at 1 nM final concentration and TYK2 at 9.75 nM are from Carna, and substrates used are ATP at 20 and 16 uM, respectively. JAK2 assay uses peptide 22 and TYK2 uses peptide 30 (Caliper), each at 3 uM.
For the compound `O=C1NCc2nc(-c3c(F)cccc3F)cc(Nc3ccc(F)cn3)c21`, the Ki was < 10 nM.

`O=C(Cc1ccc(Nc2nc(-c3c(F)cccc3F)nc3c2C(=O)NC3)cc1)NC1CNC1`: the Ki is < 10 nM.

On to `COc1ccc(Nc2cc(-c3c(F)cccc3F)nc3c2C(=O)N[C@@H]3C)nc1`, for which the Ki is < 10 nM.

On to `CCNC(=O)c1ccc(Nc2cc(-c3c(F)cccc3Cl)nc3c2C(=O)NC3)nc1`, for which the Ki is < 10 nM.

Consider `O=C1NCc2nc(-c3c(F)cccc3F)cc(Nc3ccc(F)cc3)c21`, for which the Ki was < 10 nM.

As to `O=C1NCc2nc(-c3c(F)cccc3F)cc(Nc3ccc(N4CCC5(CC5)C4)cn3)c21`, the Ki is < 10 nM.

On to `O=C1NCc2nc(-c3c(F)cccc3F)cc(Nc3ccc(N4CCC[C@H](O)C4)cn3)c21`, for which the Ki is < 10 nM.

For the compound `COCCNC(=O)c1ccc(Nc2cc(-c3c(F)cccc3F)nc3c2C(=O)NC3)nc1`, the inhibition constant Ki was < 10 nM.

Regarding `CC1(C)CCCC(=O)N1c1ccc(Nc2cc(-c3c(F)cccc3F)nc3c2C(=O)NC3)nc1`, the Ki was < 10 nM.

For the compound `O=C1NCc2nc(-c3c(F)cccc3F)cc(Nc3ccc(C4=CCOCC4)cn3)c21`, the Ki was < 10 nM.

Regarding `COC(=O)C(C)c1ccc(Nc2nc(-c3c(F)cccc3F)nc3c2C(=O)NC3)cc1` (stereo not drawn), the Ki was < 10 nM.

On to `O=C1NCc2nc(-c3c(F)cccc3F)cc(Nc3ccc(N4CCN(CCC(F)(F)F)CC4)cn3)c21`, for which the Ki was < 10 nM.

With `CN(c1ccc(Nc2cc(-c3c(F)cccc3F)nc3c2C(=O)NC3)nc1)C(C)(C)C`, the Ki was < 10 nM.

As for `N#Cc1cccc(F)c1-c1cc(Nc2ccc(C(=O)N3CCOCC3)cc2)c2c(n1)CNC2=O`, the Ki was < 10 nM.

For `O=C1NCc2nc(-c3c(F)cccc3F)cc(Nc3ccc(N4C5COCC4C5)cn3)c21`, the Ki is < 10 nM.

As for `C[C@@H]1CCC[C@H](C)N1c1ccc(Nc2cc(-c3c(F)cccc3F)nc3c2C(=O)NC3)nc1`, the Ki is < 10 nM.

As for `CC(C)N1CCN(C(=O)c2ccc(Nc3cc(-c4c(F)cccc4F)nc4c3C(=O)NC4)cc2)CC1`, the inhibitory constant (Ki) was < 10 nM.

Turning to `COc1ccc(Nc2cc(-c3c(F)cccc3C#N)nc3c2C(=O)NC3)nc1`, the Ki was < 10 nM.

Take `O=C1NCc2nc(-c3c(F)cccc3F)cc(Nc3ccc(C(=O)N4CCCCC4)cc3)c21`: the Ki was < 10 nM.

As for `Cc1ccc(Nc2nc(-c3c(F)cccc3F)nc3c2C(=O)NC3)cc1`, the Ki was < 10 nM.

On to `CC(C)N1CCN(c2ccc(Nc3cc(-c4c(F)cccc4F)nc4c3C(=O)NC4)nc2)C(=O)C1`, for which the Ki is < 10 nM.

Consider `CCNC(=O)c1ccc(Nc2nc(-c3c(F)cccc3F)nc3c2C(=O)NC3)cc1`, for which the Ki is < 10 nM.

Regarding `CC(C)Oc1ccc(Nc2nc(-c3c(F)cccc3F)nc3c2C(=O)NC3)cc1`, the Ki is < 10 nM.

As for `O=C1NCc2nc(-c3c(F)cccc3F)cc(Nc3ccc(N4CCN(CC(F)F)CC4)cn3)c21`, the Ki was < 10 nM.

For the compound `CC1(O)CCN(C(=O)c2ccc(Nc3cc(-c4c(F)cccc4F)nc4c3C(=O)NC4)cc2)CC1`, the Ki was < 10 nM.

On to `O=C1NCc2nc(-c3c(F)cccc3F)cc(Nc3ccc(N4CC(F)(F)C4)cn3)c21`, for which the Ki was < 10 nM.

With `CCNC(=O)c1cnc(Nc2cc(-c3c(F)cccc3F)nc3c2C(=O)NC3)cc1F`, the Ki was < 10 nM.

As for `CCNC(=O)c1ccc(Nc2cc(-c3c(F)cccc3F)nc3c2C(=O)NC3)cn1`, the Ki is < 10 nM.

For `O=C1NCc2nc(-c3c(F)cccc3F)cc(Nc3ccc(N4CCCC(O)C4)cn3)c21` (stereo not drawn), the Ki is < 10 nM.

Take `CC1(C)OCCN(c2ccc(Nc3cc(-c4c(F)cccc4F)nc4c3C(=O)NC4)nc2)C1=O`: the Ki was < 10 nM.

For the compound `O=C1NCc2nc(-c3c(F)cccc3F)cc(Nc3ccc(N4CCCC4)cn3)c21`, the Ki was < 10 nM.

Take `CC[C@]1(c2ccc(Nc3nc(-c4c(F)cccc4F)nc4c3C(=O)NC4)cc2)CCNC1=O`: the inhibition constant Ki was < 10 nM.

Take `O=C1NCc2nc(-c3c(F)cccc3F)cc(Nc3ccc(N4CCOCC4=O)cn3)c21`: the inhibition constant Ki is < 10 nM.

Turning to `C[C@@H]1COC[C@@H](C)N1C(=O)c1ccc(Nc2cc(-c3c(F)cccc3F)nc3c2C(=O)NC3)cc1`, the Ki is < 10 nM.

In the case of `C[C@@H]1COCCN1c1ccc(Nc2cc(-c3c(F)cccc3F)nc3c2C(=O)NC3)nc1`, the Ki is < 10 nM.

Take `CC1(C)CCC(=O)N1c1ccc(Nc2cc(-c3c(F)cccc3F)nc3c2C(=O)NC3)nc1`: the Ki is < 10 nM.

`CC1(C)CCN(c2ccc(Nc3cc(-c4c(F)cccc4F)nc4c3C(=O)NC4)nc2)CC1`: the Ki is < 10 nM.

As for `CC1COCCN1c1ccc(Nc2cc(-c3c(F)cccc3F)nc3c2C(=O)NC3)nc1` (stereo not drawn), the Ki is < 10 nM.

Take `O=C1NCc2nc(-c3c(F)cccc3F)cc(Nc3ccc(NS(=O)(=O)C(F)F)cn3)c21`: the Ki is < 10 nM.

As for `CC[C@@]1(c2ccc(Nc3nc(-c4c(F)cccc4F)nc4c3C(=O)NC4)cc2)CCNC1=O`, the Ki is < 10 nM.

Turning to `CCN(CC)C(=O)c1ccc(Nc2cc(-c3c(F)cccc3F)nc3c2C(=O)NC3)cc1`, the Ki is < 10 nM.

With `O=C1NCc2nc(-c3c(F)cccc3F)cc(Nc3ccc(C4(O)CCOCC4)cn3)c21`, the Ki is < 10 nM.

`O=C1NCc2nc(-c3c(F)cccc3F)cc(Nc3ccc(N4CCCOCC4)cn3)c21`: the Ki is < 10 nM.

`C[C@@H]1CCC[C@@H](C)N1c1ccc(Nc2cc(-c3c(F)cccc3F)nc3c2C(=O)NC3)nc1`: the Ki was < 10 nM.

Regarding `CN1CCN(C)[C@](C)(c2ccc(Nc3nc(-c4c(F)cccc4F)nc4c3C(=O)NC4)cc2)C1=O`, the Ki is < 10 nM.

Take `CC1(O)CN(c2ccc(Nc3cc(-c4c(F)cccc4F)nc4c3C(=O)NC4)nc2)C1`: the Ki was < 10 nM.

For `CC1(C)CN(c2ccc(Nc3cc(-c4c(F)cccc4F)nc4c3C(=O)NC4)nc2)CC[C@@H]1O`, the Ki was < 10 nM.

For the compound `C[C@H]1COC[C@H](C)N1c1ccc(Nc2cc(-c3c(F)cccc3F)nc3c2C(=O)NC3)nc1`, the Ki is < 10 nM.

For the compound `CC(C)N1CCN(c2ccc(Nc3cc(-c4c(F)cccc4F)nc4c3C(=O)NC4)nc2)CC1`, the Ki is < 10 nM.

For the compound `O=C1NCc2nc(-c3c(F)cccc3F)cc(Nc3ccc(C(=O)N4CCOCC4)cn3)c21`, the Ki was < 10 nM.

Take `O=C1NCc2nc(-c3c(F)cccc3F)cc(Nc3ccc(C(=O)N4CCC(F)(F)CC4)cc3)c21`: the Ki was < 10 nM.

`O=C1NCc2nc(-c3c(F)cccc3F)c(F)c(Nc3ccc(N4CCOCC4)cn3)c21`: the Ki was < 10 nM.

In the case of `CC(C)(C)Nc1ccc(Nc2cc(-c3c(F)cccc3F)nc3c2C(=O)NC3)nc1`, the Ki is < 10 nM.

In the case of `CC1(c2ccc(Nc3nc(-c4c(F)cccc4F)nc4c3C(=O)NC4)cc2)COC1`, the Ki is < 10 nM.

As for `CCNC(=O)Cc1ncc(Nc2nc(-c3c(F)cccc3F)nc3c2C(=O)NC3)cn1`, the Ki is > 1000 nM.

With `CCNC(=O)c1ccc(Nc2cc(-c3c(F)cccc3C#N)nc3c2C(=O)NC3)nc1`, the Ki was < 10 nM.

On to `CC1CC(O)CC(C)N1c1ccc(Nc2cc(-c3c(F)cccc3F)nc3c2C(=O)NC3)nc1` (stereo not drawn), for which the inhibition constant (Ki) was < 10 nM.

Regarding `O=C1NCc2nc(-c3c(F)cccc3F)cc(Nc3ccc(N4CCOCC4)nc3)c21`, the Ki was < 10 nM.
